From ChEMBL document CHEMBL4765275, “Discovery of novel tertiary amide derivatives as NEDDylation pathway activators to inhibit the tumor progression in vitro and in vivo” (Eur J Med Chem, 2020)
Activity calls are given as the source filed them. No cut-off for these calls is given here.

Legend:
MGC-803 [1] = assay: Induction of apoptosis in human MGC-803 cells assessed as early apoptotic cells at 50 nmol/L measured after 48 hrs by Annexin V-FITC/propidium iodide staining based flow cytometry (reference value: 2.2%); type: functional
MGC-803 [2] = assay: Induction of apoptosis in human MGC-803 cells assessed as down regulation of XIAP expression at 50 to 150 nmol/L measured after 48 hrs by Western blot analysis; type: functional, cell-based; details: dose 50-150 nmol/L
MGC-803 [3] = assay: Induction of apoptosis in human MGC-803 cells assessed as late apoptotic cells at 150 nmol/L measured after 48 hrs by Annexin V-FITC/propidium iodide staining based flow cytometry (reference value: 5.6%); type: functional
MGC-803 [4] = assay: Induction of apoptosis in human MGC-803 cells assessed as down regulation of c-IAP1 expression at 150 nmol/L measured after 24 hrs in presence of proteasome inhibitor […] by Western blot analysis; type: functional, cell-based
MGC-803 [5] = assay: Induction of apoptosis in human MGC-803 cells assessed as increase in cleaved PARP expression at 150 nmol/L measured after 24 hrs in presence of NEDDylation inhibitor MLN4924 by Western blot analysis; type: functional, cell-based
MGC-803 [6] = assay: Induction of apoptosis in human MGC-803 cells assessed as late apoptotic cells at 100 nmol/L measured after 48 hrs by Annexin V-FITC/propidium iodide staining based flow cytometry (reference value: 5.6%); type: functional

`COc1ccc(CN(C(=O)Cc2cccs2)c2cc(OC)c(OC)c(OC)c2)cc1` was tested, and the Activity (MGC-803 [1]) was 5.2%, the Activity (MGC-803 [2]) was “Active” and the Activity (MGC-803 [3]) was 47.6%. For the same compound, the Activity (MGC-803 [4]) was “inactive”, the Activity (MGC-803 [5]) was “inactive” and the Activity (MGC-803 [6]) was 23.2%.
